In patent US9902712B2, “Nitrogenous heterocyclic derivatives and their application in drugs” (Sunshine Lake Pharma Co., Ltd., priority 2013, dated 2018):

Test system: HFL1 cells
Assay: HFL1 cell proliferation inhibition (CCK-8, optical density at 450 nm)
Type: cell-based
Settings: for IC50: Homo sapiens, 48 hours after dosing, CCK-8, cell proliferation inhibition; for The ratio with PFD: IC50 ratio of Pirfenidone to the compound, 48 hours
Method: Example 69: Cell Experiment Method
HFL1 cells in exponential growth phase were cultured, cells were digested and collected using traditional subculturing when reaching 85-95% fusion and the cells were counted to adjust, the cell density to 5×10^4 cells per milliliter, then the cells were seed into 96-well plates, 100 μl/well and incubated in a 5% CO2 incubator at 37° C.
The supernatant of the 96-well plates was removed at 24 hours after the cells adhering to the wall and solutions containing the above compounds with different concentration were added to the wells, with 100 μl/well (the concentration of each compounds are in the range of 0.003-8 mmol/L) each concentration in 3 replicates, and the cells were cultured 48 hours after dosing.
3. Testing the Optical Density
10 μl of CCK-8 solution was added to each well 48 hours after dosing, and incubated for 2 hours. The optical density (A) of each well was determined using a microplate reader at 450 nm wavelength. The cell proliferation inhibition ratio of each compound were calculated based on A using the formula of: cell proliferation inhibition ratio(inhibition ratio, IR)=(1−value of experimental group (Ai)/value of control group (Ao))×100%, in which IC50 of each compound at 48 hours was calculated by data processing software, wherein the control group was the blank group.

| SMILES | IC50 | The ratio with PFD |
| --- | --- | --- |
| Cc1cc(=O)n(-c2ccc(N3CCC(Cc4ccccc4F)CC3)c(Cl)c2)c(C)n1 [Example 6, 3-(3-chloro-4-(4-(2-fluorobenzyl)piperidin-1-yl)phenyl)-2,6-dimethylpyrimidin-4(3H)-one] | 70 µM | 121 multiple |
| Cc1cc(=O)n(-c2ccc(N3CCC(Cc4cccc5ccccc45)CC3)c(Cl)c2)c(C)n1 [Example 9, 3-(3-chloro-4-(4-(naphthalen-1-ylmethyl)piperidin-1-yl)phenyl)-2,6-dimethylpyrimidin-4(3H)-one] | 80 µM | 179 multiple |
| Cc1cc(=O)n(-c2ccc(N3CCC(Cc4ccc5ccccc5c4)CC3)c(Cl)c2)c(C)n1 [Example 10, 3-(3-chloro-4-(4-(naphthalen-2-ylmethyl)piperidin-1-yl)phenyl)-2,6-dimethylpyrimidin-4(3H)-one] | 78 µM | 111 multiple |
| COc1cccc(CC2CCN(c3ccc(-n4c(C)nc(C)cc4=O)cc3Cl)CC2)c1 [Example 12, 3-(3-chloro-4-(4-(3-methoxybenzyl)piperidin-1-yl)phenyl)-2,6-dimethylpyrimidin-4(3H)-one] | 80 µM | 112 multiple |
| Cc1cc(=O)n(-c2ccc(N3CCC(Cc4ccccc4-c4ccccc4)CC3)c(Cl)c2)c(C)n1 [Example 13, 3-(4-(4-([1,1′-biphenyl]-2-ylmethyl)piperidin-1-yl)-3-chlorophenyl)-2,6-dimethylpyrimidin-4(3H)-one] | 70 µM | 118 multiple |
| Cc1cc(=O)n(-c2ccc(N3CCC(Cc4cccc(C(F)(F)F)c4)CC3)c(Cl)c2)c(C)n1 [Example 14, 3-(3-chloro-4-(4-(3-(trifluoromethyl)benzyl)piperidin-1-yl)phenyl)-2,6-dimethylpyrimidin-4(3H)-one] | 60 µM | 139 multiple |
| Cc1cc(=O)n(-c2ccc(N3CCC(Cc4ccccc4Cl)CC3)c(Cl)c2)c(C)n1 [Example 15, 3-(3-chloro-4-(4-(2-chlorobenzyl)piperidin-1-yl)phenyl)-2,6-dimethylpyrimidin-4(3H)-one] | 65 µM | 151 multiple |
| Cc1cc(=O)n(-c2ccc(N3CCC(Cc4ccc(Cl)c(F)c4)CC3)c(Cl)c2)c(C)n1 [Example 16, 3-(3-chloro-4-(4-(4-chloro-3-fluorobenzyl)piperidin-1-yl)phenyl)-2,6-dimethylpyrimidin-4(3H)-one] | 70 µM | 139 multiple |
| Cc1cc(=O)n(-c2ccc(N3CCC(Cc4cc(F)c(F)c(F)c4)CC3)c(Cl)c2)c(C)n1 [Example 17, 3-(3-chloro-4-(4-(3,4,5-trifluorobenzyl)piperidin-1-yl)phenyl)-2,6-dimethylpyrimidin-4(3H)-one] | 70 µM | 137 multiple |
| Cc1cc(=O)n(-c2ccc(N3CCC(Cc4cccc(Cl)c4)CC3)c(Cl)c2)c(C)n1 [Example 19, 3-(3-chloro-4-(4-(3-chlorobenzyl)piperidin-1-yl)phenyl)-2,6-dimethylpyrimidin-4(3H)-one] | 70 µM | 137 multiple |
| Cc1cc(=O)n(-c2ccc(N3CCC(Cc4cccc5cccnc45)CC3)c(Cl)c2)c(C)n1 [Example 22, 3-(3-chloro-4-(4-(quinolin-8-ylmethyl)piperidin-1-yl)phenyl)-2,6-dimethylpyrimidin-4(3H)-one] | 90 µM | 101 multiple |
| Cc1cc(=O)n(-c2ccc(N3CCC(Cc4ccc(F)cc4)CC3)c(F)c2)c(C)n1 [Example 25, 3-(3-fluoro-4-(4-(4-fluorobenzyl)piperidin-1-yl)phenyl)-2,6-dimethylpyrimidin-4(3H)-one] | 100 µM | 107 multiple |
| Cc1cc(=O)n(-c2ccc(N3CCC(Cc4cccc5ccccc45)CC3)c(F)c2)c(C)n1 [Example 26, 3-(3-fluoro-4-(4-(naphthalen-1-ylmethyl)piperidin-1-yl)phenyl)-2,6-dimethylpyrimidin-4(3H)-one] | 60 µM | 137 multiple |
| Cc1cc(=O)n(-c2ccc(N3CCC(Oc4cccc(C#N)c4)CC3)c(Cl)c2)c(C)n1 [Example 29, 3-((1-(2-chloro-4-(2,4-dimethyl-6-oxopyrimidin-1 (6H)-yl)phenyl)piperidin-4-yl)oxy)benzonitrile] | 90 µM | 107 multiple |
| Cc1cc(=O)n(-c2ccc(N3CCC(COc4cccc(F)c4)CC3)c(Cl)c2)c(C)n1 [Example 30, 3-(3-chloro-4-(4-((3-fluorophenoxy)methyl)piperidin-1-yl)phenyl)-2,6-dimethylpyrimidin-4(3H)-one] | 60 µM | 136 multiple |
| Cc1cc(=O)n(-c2ccc(N3CCC(OCc4cccc(F)c4)CC3)c(Cl)c2)c(C)n1 [Example 32, 3-(3-chloro-4-(4-((3-fluorobenzyl)oxy)piperidin-1-yl)phenyl)-2,6-dimethylpyrimidin-4(3H)-one] | 100 µM | 107 multiple |
| C=CCc1ccccc1OC1CCN(c2ccc(-n3c(C)nc(C)cc3=O)cc2Cl)CC1 [Example 33, 3-(4-(4-(2-allylphenoxy)piperidin-1-yl)-3-chlorophenyl)-2,6-dimethylpyrimidin-4(3H)-one] | 70 µM | 149 multiple |
| Cc1cc(=O)n(-c2ccc(N3CCC(Oc4cccc(N)c4)CC3)c(Cl)c2)c(C)n1 [Example 34, 3-(4-(4-(3-aminophenoxy)piperidin-1-yl)-3-chlorophenyl)-2,6-dimethylpyrimidin-4(3H)-one] | 90 µM | 154 multiple |
| Cc1cc(=O)n(-c2ccc(N3CCC(Oc4ccccc4OC(F)(F)F)CC3)c(Cl)c2)c(C)n1 [Example 35, 3-(3-chloro-4-(4-(2-(trifluoromethoxy)phenoxy)piperidin-1-yl)phenyl)-2,6-dimethylpyrimidin-4(3H)-one] | 120 µM | 119 multiple |
| Cc1ccc(OC2CCN(c3ccc(-n4c(C)nc(C)cc4=O)cc3Cl)CC2)c(Cl)c1 [Example 37, 3-(3-chloro-4-(4-(2-chloro-4-methylphenoxy)piperidin-1-yl)phenyl)-2,6-dimethylpyrimidin-4(3H)-one] | 80 µM | 181 multiple |
| Cc1cc(=O)n(-c2ccc(N3CCC(Cc4ccc(F)c(F)c4)CC3)c(Cl)c2)c(C)n1 [Example 44, 3-(3-chloro-4-(4-(3,4-difluorobenzyl)piperidin-1-yl)phenyl)-2,6-dimethylpyrimidin-4(3H)-one] | 70 µM | 139 multiple |
| Cc1cc(=O)n(-c2ccc(N3CCC(Cc4ccc5cc(F)ccc5c4)CC3)c(Cl)c2)c(C)n1 [Example 51, 3-(3-chloro-4-(4-((6-fluoronaphthalen-2-yl)methyl)piperidin-1-yl)phenyl)-2,6-dimethylpyrimidin-4(3H)-one] | 37 µM | 618 multiple |
| Cc1cc(=O)n(-c2ccc(N3CCC(COc4cccc(C(F)(F)F)c4)CC3)c(Cl)c2)c(C)n1 [Example 53, 3-(3-chloro-4-(4-((3-(trifluoromethyl)phenoxy)methyl)piperidin-1-yl)phenyl)-2,6-dimethylpyrimidin-4(3H)-one] | 38 µM | 602 multiple |
| Cc1cc(=O)n(-c2ccc(N3CCC(Cc4cc(F)cc5cccnc45)CC3)c(Cl)c2)c(C)n1 [Example 54, 3-(3-chloro-4-(4-((6-fluoroquinolin-8-yl)methyl)piperidin-1-yl)phenyl)-2,6-dimethylpyrimidin-4(3H)-one] | 40 µM | 209 multiple |
| Cc1cc(=O)n(-c2ccc(N3CCC(Cc4ccc(C(F)(F)F)c5cccnc45)CC3)c(Cl)c2)c(C)n1 [Example 56, 3-(3-chloro-4-(4-((5-(trifluoromethyl)quinolin-8-yl)methyl)piperidin-1-yl)phenyl)-2,6-dimethylpyrimidin-4(3H)-one] | 40 µM | 209 multiple |
| Cc1cc(=O)n(-c2ccc(N3CCC(Cc4cc(F)c(F)c5cccnc45)CC3)c(Cl)c2)c(C)n1 [Example 57, 3-(3-chloro-4-(4-((5,6-difluoroquinolin-8-yl)methyl)piperidin-1-yl)phenyl)-2,6-dimethylpyrimidin-4(3H)-one] | 60 µM | 168 multiple |
| Cc1cc(=O)n(-c2ccc(N3CCC(Cc4ccc(F)c5ccccc45)CC3)c(Cl)c2)c(C)n1 [Example 58, 3-(3-chloro-4-(4-((4-fluoronaphthalen-1-yl)methyl)piperidin-1-yl)phenyl)-2,6-dimethylpyrimidin-4(3H)-one] | 64 µM | 357 multiple |
